# BindingDB's records for doi:10.1021/bi501086s (The University of Texas, 2014)
# Target: T1, Acylase (Pseudomonas aeruginosa, UniProt A0A0G5TC92)
# T1 sequence (A0A0G5TC92 whole entry): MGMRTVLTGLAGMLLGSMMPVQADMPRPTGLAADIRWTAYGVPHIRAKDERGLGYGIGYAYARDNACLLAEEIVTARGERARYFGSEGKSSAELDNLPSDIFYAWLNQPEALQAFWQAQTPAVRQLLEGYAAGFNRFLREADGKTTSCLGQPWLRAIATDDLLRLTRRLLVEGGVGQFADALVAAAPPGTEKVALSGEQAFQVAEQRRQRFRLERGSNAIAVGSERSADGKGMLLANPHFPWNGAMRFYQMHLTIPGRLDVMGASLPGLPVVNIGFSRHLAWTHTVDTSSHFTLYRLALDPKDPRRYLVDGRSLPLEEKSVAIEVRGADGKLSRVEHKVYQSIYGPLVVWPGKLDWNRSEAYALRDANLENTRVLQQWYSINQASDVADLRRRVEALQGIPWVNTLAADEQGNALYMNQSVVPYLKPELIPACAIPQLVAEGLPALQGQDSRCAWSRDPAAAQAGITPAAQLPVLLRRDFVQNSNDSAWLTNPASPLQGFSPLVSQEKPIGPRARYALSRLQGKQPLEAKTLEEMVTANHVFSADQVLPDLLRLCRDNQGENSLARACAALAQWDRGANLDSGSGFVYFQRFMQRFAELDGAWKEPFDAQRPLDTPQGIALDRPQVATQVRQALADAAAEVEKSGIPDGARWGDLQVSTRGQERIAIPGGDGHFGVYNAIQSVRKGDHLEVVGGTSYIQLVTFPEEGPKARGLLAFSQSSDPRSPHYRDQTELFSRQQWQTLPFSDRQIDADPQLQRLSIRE
# Assay: PVdQ Inhibition Assay
# Details: pH 8
# Method: Briefly, stock solutions of the colorimetric PvdQ substrate (4-nitrophenyl dodecanoate) were prepared in methanol and stock solutions of each n-alkylboronic acid inhibitor in DMSO. […] Each reaction was initiated by addition of purified PvdQ (10 nM) and product formation was monitored by measuring the increase in absorbance at 402 nm continuously.
row,Compound,Ki [mM]
1,CCCCB(O)O [Borinic acid derivative],0.55
2,CCB(O)O [1-Ethylboronic acid (C2-B(OH)2)],2
3,CCCB(O)O [1-Propylboronic acid (C3-B(OH)2)],4.7
4,CCCCCCB(O)O [1-Hexylboronic acid (C6-B(OH)2)],0.0021
